How the values were obtained:
[1] = tested on: FRs on freshly excised, non-cultured human PT adenoma cells; assay: 99mTc-EC20 uptake by PT adenoma cell slurry with or without cold folate block; assay type: cell-based; conditions: for 99mTc-EC20 uptake, not blocked: absence of cold folate; for 99mTc-EC20 uptake, blocked: pre-incubation with cold folate (200 μM)
Protocol: Some aliquots of cells were blocked by pre-incubation with cold folate (FA) (yellow bars).

[2] = tested on: primary human parathyroid cells; assay: 18F FACBC uptake assay; assay type: cell-based; conditions: preliminary experiments
Text: BCH is L type transporter inhibitor (2-amino-2-norboranecarboxylic acid), MeAlB is an A type inhibitor (2-[methylamine]isobutric acid), ACS is a multiple amino acid transporter inhibitor (L-alanine, L-cystine, L-serine).
In certain embodiments, the disclosure contemplates methods of ^18F-FACBC Imaging. […] See McConathy et al., Appl Radiat Isot. 2003; 58(6):657-66, hereby incorporated by reference. Parathormone is a peptide hormone, and the bioactive conformation includes a long helical dimer containing leucine residues. […] It is contemplated that parathyroid cells concentrate Anti-^18F-FACBC, and thus Anti-^18F-FACBC can be used as an imaging probe for PET imaging.

[3] = in vivo; cited from earlier work

SMILES	99mTc-EC20 uptake, not blocked ([1]; 20 μl PT adenoma cell slurry) [% dose/20 μl tissue prep]	99mTc-EC20 uptake, blocked ([1]; 20 μl PT adenoma cell slurry) [% dose/20 μl tissue prep]	99mTc-EC20 uptake, not blocked ([1]; 70 μl PT adenoma cell slurry) [% dose/70 μl tissue prep]	99mTc-EC20 uptake, blocked ([1]; 70 μl PT adenoma cell slurry) [% dose/70 μl tissue prep]	uptake of Anti-18F-FACBC by primary human parathyroid cells [2]	pancreatic concentration [3]	renal excretion [3]
[NH-][C@@H](CNC(=O)CC[C@@H](NC(=O)c1ccc(NCc2cnc3nc(N)[nH]c(=O)c3n2)cc1)C(=O)O)C(=O)[N-][C@@H](CC(=O)O)C(=O)[N-][C@@H](C[S-])C(=O)O.[O]=[Tc+4] [99mTc-EC20]	3.4±0.4	1.9±0.2	10.9±0.9	5.7±0.3	–	–	–
NC1(C(=O)O)CC([18F])C1 (stereo not drawn) [Anti-^18F-FACBC, anti-1-amino-^18F-flurocyclobutane-1 carboxylic acid]	–	–	–	–	significant specific uptake	high pancreatic concentration	low renal excretion

Source: US20150174273A1, “IMAGING AND THERAPEUTIC METHODS FOR TREATING PARATHYROID TUMORS” (EMORY UNIVERSITY, priority 2012, published 2015)
